The subject of assay [1] is Burkitt's Lymphoma CA46 cells. Nature of the assay: PCC induction and PI staining. Type of assay: cell-based, human. The following applies: 1 h. The method, then:
(§1) Burkitt's Lymphoma CA46 cells (500,000) (FIG. 1B) or breast cancer MDA-MB-231 cells (500,000) (FIG. 1A) were treated by 100 nM Lasonolide A (stock solution 100 μM in DMSO) for 1 h. Lymphocytes were treated with 200 nM Lasonolide A for 1 h. Cells were harvested with centrifuging on 2,000 rpm for 5 min at 4° C. Pellets were washed once by PBS and re-suspended in 1 mL PBS. 200 μL cells mixture were added to the chamber for cytospining. Cells were cytospun on 800 rpm for 10 min; slides were fixed in fresh-made 4% paraformaldehyde fixation for 20 min at room temperature, then moved to 70% ethanol for 20 min. Slides were stained with Propidium Iodide (“PI”) (20 μg/mL) and RNase A (100 μg/mL) for 15 min. Slides were washed with PBS for three times and mounted with Vectashield anti-fade mounting media (Vector Laboratories, Inc., Burlingame, Calif.). Images were taken using a Nikon Eclipse TE-300 confocal microscope.

Assay [2] deals with breast cancer MDA-MB-231 cells. Nature of the assay: PCC induction and PI staining. Type of assay: cell-based, human. The following applies: 1 h. The method, then: as §1
The test system of a further assay is chromatin condensation. Nature of the assay: DNase I sensitivity assay. Type of assay: cell-based. The settings on record: 1 h. The method, then: Cells were treated with different concentrations of Lasonolide A for 1 h and were collected with centrifuging. The centrifuged cells were washed with PBS and fixed with 1.5% PFA for 15 min on ice. After washing by PBS, fresh PBS was added (300 μL) to re-suspend the pellet, then 700 μL 70% EtOH was gently added and the mixture was maintained at −20° C. overnight. The solution was washed by PBS once, then washed by 1× DNase I reaction buffer (500 μL), then incubated in 200 μL Reaction buffer with 4 Units DNase I (2 μL), 37° C., 10 min. The solution was washed by PBS and incubated in 100 μL Polymerase reaction buffer including 16 μM dATP, 16 μM dCTP, 16 μM dGTP, 16 μM dUTP-FITC, 100 unit/mL Polymerase I, 37° C. 60 min. FL1 channel of Green fluorescence signal were measured with flow cytometer (FIG. 1C).

The next assay has as its system HCT 116 cells. Nature of the assay: Cell cycle analysis. Type of assay: cell-based. The following applies: 24 h treatment. The method, then:
(§2) After treatment, cells were collected, washed twice with ice-cold PBS, and fixed overnight with 70% precooled (−20° C.) ethanol. Fixed cells were resuspended in PBS containing 0.02 mg/mL RNase A (Roche, USA) and incubated at 37° C. for 15 min. Next, the cells were stained with 0.01 mg/mL propidium iodide (Sigma) in the dark at room temperature for 10 min. The DNA content was analyzed by flow cytometry using a FACSCalibur (Becton Dickinson, Sunnyvale, Calif.) with Cellquest and Modfit LT3.0 software (Becton Dickinson) (FIGS. 1D & 2A).

Another assay relates to HT 29 cells. Nature of the assay: Cell cycle analysis. Type of assay: cell-based. The following applies: 24 h treatment. The method, then:
as §2

A further assay concerns MCF-7 cells. Nature of the assay: Cell cycle analysis. Type of assay: cell-based. The following applies: 24 h treatment. The method, then: as §2
In assay [3] the test system is MDA-MB-231 cells. Nature of the assay: Cell adhesion assay. Type of assay: cell-based, human. The method, then:
The effect of Lasonolide A on the extracellular matrix-induced cell adhesion was determined as follows. Fibronectin or collagen was diluted in sterile water and applied to 96-well plates overnight at 4° C. Nonspecific binding sites were blocked with 1% bovine serum albumin for 1 h at room temperature. Breast cancer MDA-MB-231 cells were serum starved for 45 min, detached with 2 mmol/L EDTA in PBS, plated in triplicate onto wells in serum-free medium with or without Lasonolide A, and allowed to adhere for 1 h at 37° C. Nonadherent cells were washed away and adherent cells were fixed with 4% paraformaldehyde and stained with 0.1% crystal violet in 2% methanol. Following extensive washing with tap water, dye was extracted with 10% acetic acid and quantified by measuring absorbance at 595 nm on a multiwell spectrophotometer (VersaMax, Molecular Devices). (FIGS. 6A, 6B, & 6D)

Assay [4] has as its system MDA-MB-231 cells. Nature of the assay: Transwell migration assay. Type of assay: cell-based, human. The settings on record: 6 h. The method, then: The effect of Lasonolide A on the migration of breast cancer MDA-MB-231 cells was determined in a transwell Boyden Chamber (Costar, Mass.) using a polycarbonate filter with a pore size of […], which was coated with 0.2% gelatin, balancing with gelatin at 37° C. for 1 h, then removal of the gelatin and covering with DMEM without serum overnight at 37° C. In the standard assay, after removing medium, 0.1 mL of cell suspension (1×10^5 cells/ml, in serum-free medium) with Lasonolide A or 0.1% DMSO (v/v) was added to the upper compartment of the chamber. The lower compartment contained 0.6 mL of DMEM medium supplemented with 20% serum. After incubation for 6 h at 37° C., the filter was removed and fixed with ethanol. Cells remaining on the upper surface of the filter (non-migrated) were scraped gently. Then, migrated cells on the lower surface of the filter were stained with 0.1% crystal violet and taken photographs under microscope (FIG. 6C).

Assay [5] concerns actin network in MDA-MB-231 cells. Nature of the assay: Actin staining with phalloidin. Type of assay: cell-based, human. The method, then: Cells were fixed with 4% paraformaldehyde and permeabilized with PBS containing 0.1% Triton X-100. After blocking with 1% bovine serum albumin for 30 min. Cells were incubated with Alexa Fluor 488-conjugated phalloidin (Molecular Probes) to stain actin stress fibers.

Values joined by “and” are separate entries in the source; they are usually repeats but may differ in a detail not shown here. Equal entries are not always repeated. “Also recorded” adds a separate entry of the source.

Turning to `C=C(CCC(C)C)COC(=O)[C@H](O)C/C=C\C[C@@H]1O[C@@H]2/C=C/C/C=C/C(C)=C\[C@H]3O[C@@H](C/C=C/C=C/C(=O)O[C@H](C2)[C@@]1(C)CO)C[C@H](O)[C@H]3C` [Lasonolide A], the “cells with premature chromosome condensation (PCC)” value in assay [1] (100 nM Lasonolide A) is 97.9% and 99.5%. Also, the “PCC induction (in words)” value in assay [1] (100 nM) and in [2] (100 nM) was “induced premature chromosome condensation (PCC)” in each case. Moreover, the “cells with PCC” value in assay [2] stood at 13%. Further, the “DNase I sensitivity, fluorescence shift” value with chromatin condensation (100 nM) is listed as “evidence of an effect”; with chromatin condensation (200 nM), “a greater change, affecting signal amplitude”. In addition, the cell cycle arrest entry with HCT 116 cells, in the assay on HT 29 cells and in the assay on MCF-7 cells was “G2/M phase arrest” in each case. Further, the “attachment of cells to collagen I” value with MDA-MB-231 cells [3] (collagen I) is given as “blocked; also recorded: reduced”. In addition, in the assay on MDA-MB-231 cells [3] (fibronectin), the “attachment of cells to fibronectin” value is “blocked; also recorded: reduced”. Besides, the “cell adhesion / detachment” value in the assay with MDA-MB-231 cells [3] (low dose, short-time treatment, nanomolar concentration) is on record as “inhibited adhesion; also recorded: detached cells into suspension”. In the assay on MDA-MB-231 cells [4], the cell migration entry is on record as “inhibited migration”. Besides, the “actin network / cytoskeleton” value in assay [5] is on record as “reorganized the cytoskeleton system; also recorded: reorganized the actin network”.
